Assays:
K562 = test: TUNEL / propidium iodide flow cytometry, K562; format: cell-based, human; details: taurolidine 100 μg/ml or anisomycin 1 μg/ml for 4 h, assayed at 24 hours, mean ± SD
Experimental: (§1) In the second method, DNA fragmentation was detected via TUNEL assay according to the manufacturer's instructions. With this methodology, 2×10^6 cells were fixed with 2% paraformaldehyde, permeabilized with 0.1% Triton X-100/0.1% citrate, incubated at 37° C. with terminal deoxynucleotidyl transferase and FITC-dUTP, rinsed and analyzed by flow cytometry. Enhanced FITC signal indicates apoptosis-specific DNA fragmentation. Gavriali, et al, "Identification of programmed cell death in situ via specific labeling of nuclear DNA fragmentation," J Cell Biol 119:493 (1992). Parallel aliquots of unfixed cells were treated with PI and FITC-conjugated anti-CD14 and analyzed by flow cytometry, in order to identify cells with permeable cell membranes (since PI binds to DNA but is excluded from cells with intact plasma membranes) and also to determine the cell-specificity of the apoptotic signal.
In another study, TUNEL assays were performed on all cell lines 6 hours after cells were initially exposed to taurolidine (cells were treated for 4 hours, rinsed, and then incubated for 2 more hours before TUNEL assay was performed).
. Taurolidine and anisomycin induced apoptosis in MM6, HL-60, and Jurkat cells (Table VIII). MM6 and HL-60 cells were similarly effected, with >80% TUNEL-positive cells after 6 hours. Jurkat cells were less sensitive, with approximately 50% of cells induced to undergo apoptosis after taurolidine treatment. After 6 hours, 73% of anisomycin-treated REH cells were apoptotic, with less than 20% of taurolidine-treated REH cells being TUNEL-positive. However, assay of cells 24 hours after
^a Analysis by flow cytometry after staining cells with propidium
iodide and processing for TUNEL.
Data are percent of total cell-size events, and are expressed as mean ±
Cells were treated for 4 hours with taurolidine (100 μg/ml) or
anisomycin (1 μg/ml), and then assayed at 6 hours.
Data are percent of total cell-sized events, and are expressed as mean ±
anisomycin (1 μg/ml), and then assayed at 24 hours.

Lymphocytes = test: TUNEL flow cytometry, lymphocytes in PBMC, culture medium; format: cell-based, human; details: 6 h
Experimental: FIG. 14A and FIG. 14B are terminal deoxytransferase-mediated deoxyuridine-triphosphate-biotin nick end labeling assay (TUNEL) analyses of control cells and taurolidine-treated PBMC, respectively. Cells were incubated with 100 μg/ml taurolidine for six hours and processed for TUNEL analysis as given below. Parallel samples were stained with FITC-conjugated anti-CD14 and propidium iodide (PI) as described below. Ten thousand events were recorded per sample. TUNEL signal (x-axis) is a measure of DNA fragmentation, which FSC (y-axis) is related to cell size. TUNEL-negative lymphocytes are bounded by the rectangle R1, while TUNEL-negative monocytes (CD14 positive cells) are bounded by the rectangle R2. The vertical line indicates demarcation between TUNEL-negative and TUNEL-positive cells. There were minimal numbers of PI-positive cells in the six hour samples (see Table IV).
as §1
A Becton-Dickinson FACSCalibur instrument was used for flow cytometric analysis of cells. Assessment of cell diameter (forward scatter; FCS) and granularity (side scatter; SSC).was carried out on unfixed cells. Discrimination between lymphocytes and monocytes was made possible by their characteristic differences in FSC and SSC, and confirmed by staining monocytes with FITC-labeled anti-CD14 antibodies and lymphocytes with a combination of FITC-conjugated anti-CD3 and PE-conjugated anti-CD19. After incubation with taurolidine (with or without concomitant LPS treatment), cells were rinsed twice in phosphate-buffered saline containing 0.1% bovine serum albumin (PBSA) and 1×10^6 cells were resuspended in 0.1 ml PBSA. After 5 μl FITC-conjugated anti-CD14 was added, cells were incubated in the dark on ice for 15 minutes and then centrifuged at 250×g. Cells were resuspended in 500 μl PBSA containing 5 μg/ml PI and subjected to flow cytometry.
Consequently, TUNEL analysis was performed on PBMC at 3, 6, or 24 hours after treatment with 25 to 100 μg/ml taurolidine. Aliquots of harvested cells were also labeled with FITC-conjugated anti-CD14 antibodies and PI, which allowed identification of monocytes (CD14-positive cells) and cells with damaged cell membranes (PI-positive cells). […] Thus, nearly 75% of the monocytes were TUNEL-positive following treatment with 100 μg/ml taurolidine for six hours. Confirmation that the TUNEL-positive cells were monocytes was obtained by staining with FITC-conjugated anti-CD14.
^a Analysis by flow cytometry after staining cells with FITC-conjugated
anti-CD14 and PI, and processing for TUNEL. Data are mean ± SD of two
^b Percent of cells present in the TUNEL-negative region in control

[1] = propidium iodide flow cytometry, PBMC all cells, whole blood; format: cell-based; details: human, mean ± SD of 2 experiments
Experimental: FIGS. 15A, 15B, and 15C depict TUNEL analysis of PBMC treated with taurolidine in whole blood, for control cells, taurolidine-treated cells, and anisomycin-treated cells, respectively . Cells were incubated with 500 μg/ml taurolidine for 4 hours, resuspended in fresh medium, incubated for two hours further and processed for TUNEL analysis. Parallel samples were stained with FITC-conjugated anti-CD14 and PI as described herein. Ten thousand events were recorded per sample. TUNEL signal (x -axis) is a measure of DNA fragmentation, while FSC (y-axis) is related to cell size. TUNEL-negative lymphocytes are bounded by rectangle R 1, while TUNEL-negative monocytes (CD 14 positive cells) are bounded by rectangle R2. […]
as §1, with “Enhanced FITC signal indicates apoptosis-specific DNA fragmentation. Gavriali, et al, "Identification of programmed cell death in situ via specific labeling of nuclear DNA fragmentation," J Cell Biol 119:493 (1992).” left out, “signal. […]” for “signal.”

epithelial cells = details: 5 mg/ml taurolidine, two hours; cited from earlier work

Structure (SMILES): O=S1(=O)CCN(CN2CCS(=O)(=O)NC2)CN1 [taurolidine, 4,4'-methylenebis(perhydro-1,2,4-thiadiazin 1,1-dioxide)]
- % TUNEL-positive (K562): approximately 20%
- viability at 25 µg/mL (Lymphocytes; Homo sapiens, Lymphocyte, lymphocytes, 25 μg/ml, percent of control, read-out: % TUNEL-Negative): 100 ± 7%
- viability at 50 µg/mL (Lymphocytes; Homo sapiens, Lymphocyte, lymphocytes, 50 μg/ml, percent of control, read-out: % TUNEL-Negative): 99.8 ± 3.4%
- viability at 100 µg/mL (Lymphocytes; Homo sapiens, Lymphocyte, lymphocytes, 100 μg/ml, percent of control, read-out: % TUNEL-Negative): 102 ± 3.1%
- cells remaining TUNEL-negative (Lymphocytes; lymphocytes, up to 100 μg/ml taurolidine): ~100%
- apoptosis in lymphocytes (Lymphocytes; up to 100 μg/ml taurolidine, culture medium): did not induce detectable apoptosis
- cytotoxicity at 6 h ([1]; 200 μg/ml): 1.6 ± 0.6%
- cytotoxicity at 6 h ([1]; 500 μg/ml): 1.4 ± 0.2%
- toxic effects on epithelial cells (epithelial cells): No toxic effects
